Laboratory results published in US20110268699A1, “METHODS FOR TREATING MULTIPLE SCLEROSIS USING TETRACYCLIC PYRAZINOINDOLES” (BIOVISTA, INC., priority 2008, published 2011).
Where two headings read alike, the source gives them in different places.

Legend:
[1] = tested on: MOG-induced EAE in female C57BL/6J mice; assay: Histological analysis of spinal cord (H&E) of EAE mice: severity score and white matter damage; format: in vivo, mouse
Text: EXAMPLE. Histological Analysis of mice treated with pirlindole (BVA-201). Briefly, all samples are longitudinal sections of the vertebral column and spinal cord stained with hematoxylin and eosin (H&E). Sample A is the cranial part of the vertebral column and sample B is the caudal part. The modifiers F-focal, MF-multifocal, and D-diffuse are used to describe the distribution of inflammatory cellular infiltration. Diffuse is used when the lesion is continuous (at least on one side) and affects the entire SC. In some cases the lesion affects the entire SC (100%) but its distribution is multifocal because it is not contiguous i.e. there are small unaffected segments on one side, which are affected on the contralateral side. Histology analysis refers to 2 parameters: (a) Severity Score which is referring mainly but not limited to infiltration on inflammatory cells; and (b) White Matter Damage (WMD). Codes: Dist—distribution; GM—gray matter; IC—inflammatory cells; ND—not done; SC—spinal cord; Sev—severity; WM—white matter; WMD—white matter damage; WNL—within normal limits. Severity scores 0—WNL, 1—minimal, 2—mild, 3—moderate, 4—severe. Half grades are also used. Severity refers to the amount of inflammatory infiltration and WMD. If there is a discrepancy in the grade of these 2 changes, then this is noted. The extent of WMD is indicated in percentage referring to the amount of affected spinal cord tissue in the sample. In many cases the damage affected one side (dorsal or ventral) of the SC only. In some cases, when the plane of section is more lateral the WMD affects both sides. The available SC sample is considered 100%. Thus, if in a 5 cm long SC, there are changes in a 0.5 cm long segment, then this was noted as 10% irrespective of whether the damage affected one side or both. Although not reflected in the percentage, the extent of the lesion is taken into consideration in evaluation of the severity. WMD describes a set of changes including vacuolation, gliosis, and presence of myelin debris. […]

[2] = tested on: MOG-induced EAE in female C57BL/6J mice; format: in vivo, mouse
Method: Acute EAE Murine Model. […] The MOG murine model consists of a sensitization period, induced by the single subcutaneous (SC) injection of MOG emulsified in Complete Freund's Adjuvant (CFA) on study days 0 and 6, followed by IP supplemental immunostimulation with Pertussis Toxin (PT) carried out once at the time of EAE induction and once again 48 hours later.
Briefly, the study is performed in female C57BL/6J mice (Harlan Laboratories Israel, Ltd.) as young adults, 8-9 weeks of age at study initiation. animals are acclimatized to laboratory conditions at least 5 days. During acclimation and throughout the entire study duration, animals are housed in groups of 10 mice maximum in polypropylene cages, which are fitted with solid bottoms and filled with wood shavings as bedding material. Animals are provided ad libitum a commercial rodent diet and free access to drinking water, supplied to each cage via polyethylene bottles with stainless steel sipper tubes. Water is monitored periodically. Automatically controlled environmental conditions are set to maintain temperature at 20-24° C. with a relative humidity (RH) of 30-70%, a 12:12 hour light: dark cycle and 15-30 air changes/hr in the study room. Temperature and RH are monitored daily. The light cycle is monitored by the control clock. Weight variation of animals at the time of treatment initiation should not exceed ±20% of the mean weight. At the end of the study, surviving animals are euthanized by CO2 asphyxiation.
Antigen. […] This concentration is appropriate for the selected dose and dose volume of 200 μg MOG in 100 μL PBS.
MOG/CFA Emulsion. Prior to each inoculation carried out on study days 0 and 6, 100 μl of MOG solution (200 μg) is emulsified with 100 μl of CFA suspension (300 μg heat killed Mycobacterium Tuberculosis H37 Ra). […]
Initially, all animals are examined for signs of any neurological responses and symptoms prior to EAE induction (study day 0) and are examined on a daily basis throughout the 35-day observation period. EAE reactions are scored and recorded according to a 0-15 scale Clinical signs Scoring Methods. […]

[3] = steady-state, trough sample (pre-dose), on average; cited from earlier work

SMILES	Demyelination / myelin repair compared to the vehicle-only treatment group ([1]; BVA-201 treatment group, general statement)	Histology mean % of white matter damage (WMD) ([1]; group F, 30 mg/kg IP, FIG. 5)	Histology mean group severity score (inflammatory infiltration) versus vehicle ([1]; groups C (1 mg/kg) and F (30 mg/kg) IP, FIG. 3)	Activity on EAE clinical score compared to the vehicle-only treatment group (A) ([2]; group C, 1.0 mg/kg IP once daily, at the end of the study)	Activity on EAE clinical score compared to the vehicle-only treatment group (A) ([2]; group C, 1.0 mg/kg IP once daily, intermediate time points on days 30, 31, and 32, p<0.05)	Activity on EAE clinical score compared to the vehicle-only treatment group (A) ([2]; group E, 10 mg/kg IP once daily from day 0, p<0.01, starting at day 15 and continuing throughout the study (day 23, p<0.05), FIG. 1)	Metabolite concentration as share of the clozapine concentration in plasma [3] [%]
Cc1ccc2c(c1)c1c3n2CCNC3CCC1 (stereo not shown) [Pirlindole, 2,3,3a,4,5,6-hexahydro-8-methyl-1H-pyrazino[3,2,1-j,k]carbazole]	one or more of (a) less demyelination, (b) improved myelin repair, and/or (c) remyelination	significant protective effect	No difference	not statistically significant	statistically significant	statistically significant	–
Clc1ccc2c(c1)N=C(N1CCNCC1)c1ccccc1N2 [Norclozapine]	–	–	–	–	–	–	~70
